Activity calls are given as the source filed them. No cut-off for these calls is given here.

In assay [1] the target is T1, Tyrosinase (Homo sapiens, UniProt P14679).
T1 sequence (P14679 whole entry): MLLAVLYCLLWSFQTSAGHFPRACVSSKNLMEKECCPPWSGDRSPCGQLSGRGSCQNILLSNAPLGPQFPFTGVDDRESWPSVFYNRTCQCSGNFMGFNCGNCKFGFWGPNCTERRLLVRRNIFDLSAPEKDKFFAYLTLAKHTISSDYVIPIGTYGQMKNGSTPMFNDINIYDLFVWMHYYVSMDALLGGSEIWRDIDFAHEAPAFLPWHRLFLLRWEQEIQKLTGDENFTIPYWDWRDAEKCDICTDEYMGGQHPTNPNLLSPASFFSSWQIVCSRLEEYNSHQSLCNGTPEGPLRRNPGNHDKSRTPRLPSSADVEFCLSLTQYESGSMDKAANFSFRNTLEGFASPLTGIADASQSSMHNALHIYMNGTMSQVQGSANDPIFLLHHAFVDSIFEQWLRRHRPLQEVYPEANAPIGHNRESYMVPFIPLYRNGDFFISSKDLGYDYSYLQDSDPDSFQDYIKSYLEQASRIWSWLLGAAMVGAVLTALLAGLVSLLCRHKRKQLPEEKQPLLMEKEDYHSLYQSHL
Nature of the assay: Inhibition of human tyrosinase using L-DOPA as substrate by spectrophotometer analysis.

Assay [2] has as its target T2, Tyrosinase (Homo sapiens) (UniProt P14679).
T2 sequence (whole entry): T1 sequence (P14679 whole entry)
The assay can be described thus: Binding affinity to human Tyrosinase assessed as gibbs free energy change by MM-GBSA method.

Assay [3] concerns the target Mushroom tyrosinase (Agaricus bisporus) (UniProt O42713+Q00024+C7FF04+C7FF05). The assay can be described thus: Binding affinity to mushroom tyrosinase assessed as gibbs free energy change by MM-GBSA method. In kind it is protein assay.
Assay [4] has as its target T3, Mushroom tyrosinase (Agaricus bisporus, UniProt O42713+Q00024+C7FF04+C7FF05). Nature of the assay: Inhibition of mushroom tyrosinase using L-DOPA as substrate. It counts as protein assay.
The target in assay [5] is T1, Tyrosinase. The assay can be described thus: Binding affinity to human tyrosinase using l-DOPA as substrate assessed as inhibition constant by Michaelis-Menten plot analysis.
Assay [6] has as its target T2, Tyrosinase (Homo sapiens). Nature of the assay: Competitive inhibition of human tyrosinase using L-DOPA substrate upto 2.08 uM by Lineweaver-Burk plot analysis.
Assay [7] deals with T3, Mushroom tyrosinase. Nature of the assay: Inhibition of mushroom tyrosinase using L-DOPA as substrate by spectrophotometer analysis. In kind it is protein assay.

`O=C(CN1CCC(Cc2ccccc2)CC1)N1CCN(c2ccc(O)cc2)CC1` gave a half-maximal inhibitory concentration (IC50) against Tyrosinase [1] of 1100 µM. The values for the deltaG in assay [2] and in assay [3] were 0 kcal/mol and -4.54 kcal/mol, respectively.

`COc1ccccc1C(=O)N1CCN(c2ccc(O)cc2)CC1`: the half-inhibitory concentration (IC50) against Tyrosinase [1] was found to be 5.4 µM; on Mushroom tyrosinase [4], 3.52 µM. Further, on Tyrosinase [5], the inhibitory constant (Ki) came to 1.02 µM. Besides, in assay [6], the inhibition entry was “Active”.

As to `CC(C)C(=O)Nc1nc(-c2ccc(O)cc2O)cs1`, the IC50 against Tyrosinase [1] amounted to 3.8 µM; against Mushroom tyrosinase [7] it was 108 µM. For the same compound, the values for the deltaG in assay [2] and in assay [3] were -14.8 kcal/mol and 3.34 kcal/mol, respectively. Further, the inhibitory constant (Ki) at Tyrosinase [5] stood at 0.92 µM.

These data come from ChEMBL document CHEMBL5625243, “Computational methods to analyze and predict the binding mode of inhibitors targeting both human and mushroom tyrosinase” (Eur J Med Chem, 2023).
